Reference: patent US20250213585A1, “COMPOSITIONS AND METHODS OF A CONCOMITANT THERAPY OF ALTERNATING ELECTRIC FIELDS AND NOTCH-1 INHIBITOR” (NOVOCURE GMBH, priority 2023, published 2025)
Entries after “also recorded” stand apart in the source; their conditions may differ.

Experiments:
U87 = experiment: Cell viability of glioblastoma cell line U87 (FIGS. 6, 7); assay type: cell-based
Protocol: (§1) For short-term experiments, such as detecting the degradation process of glioblastoma cells under TTFields, U87, U251, LN229, and T98 cell suspensions (450 μL, 100,000 cells per well) were evenly spread on 24 mm cell culture slides. After overnight incubation, the cells were transferred to in vitro dishes and supplemented with 2 mL fresh culture medium. The treatment frequency was 200 kHz, with a treatment field strength of 1.62 V/cm RMS, for a duration of 24 hours. For long-term combination experiments, involving the combined use of RO4929097 or Notch1 gene knockdown with TTFields, cells (450 μL, 40,000 cells per well) were treated with a field strength of 1.19 V/cm RMS and a frequency of 200 kHz for 72 hours. The concentration of RO4929097 drug was varied. For organoid experiments, 3-5 GBOs were added to each well, and fresh GBO medium was replaced. The treatment field strength was 1.19 V/cm RMS, with a frequency of 200 kHz, for treatment durations of 24 and 48 hours.

U251 = experiment: Cell viability of glioblastoma cell line U251 (FIGS. 6, 7); assay type: cell-based
Protocol: as §1

[1] = system: patient-derived glioblastoma organoids (GBOs); experiment: EdU staining of patient-derived glioblastoma organoids with TTFields (FIG. 13I); assay type: cell-based
Protocol: as §1

cells = experiment: Combination of Notch1 inhibitor with an alternating electric field (FIGS. 4, 8); assay type: cell-based
glioblastoma = settings: cited from earlier work
glioma cells [2] = experiment: Clonogenic (colony formation) assay after treatment (FIGS. 5, 10D); assay type: cell-based
Protocol: as §1, with “48 hours. Following treatment with TTFields and corresponding conditions, 500-1000 cells were selected from each group and seeded in 6-well dishes. The cells were cultured at 37 degrees Celsius with 5% CO2 for a period of 7-10 days, with medium replacement every 3 days. […]” for “48 hours.”

[3] = system: glioma cell lines including U87, U251, and LN229; experiment: Validation assays with TTFields in glioma cell lines (EdU incorporation, cell counting; FIGS. 10A-C); assay type: cell-based
Protocol: It was first analyzed whether Notch1 antagonization sensitized glioma cell lines to TTFields treatment. Validation assays were conducted across multiple glioma cell lines including U87, U251, and LN229. The Notch1 inhibitor RO4929097 was used to probe whether it synergizes with TTFields. […] In the validation assays, experimental cohorts were divided into four groups: control (DMSO), TTFields treatment alone, Notch1 inhibitor RO4929097, and TTFields plus RO4929097.
as §1

glioma cells [4] = experiment: Sensitization of glioma cells to temozolomide (FIGS. 7, 10E); assay type: cell-based; settings: Notch1 inhibitor in combination with temozolomide
Notch1 protein = experiment: TTFields-mediated degradation of Notch1 protein with degradation pathway inhibitors (FIG. 11E); assay type: cell-based; settings: TTFields treatment
From the text: Reduction of Notch1 level by TTFields was also confirmed by immunofluorescence staining (FIGS. 11C and D). The intracellular protein degradation mechanism primarily involves proteasomal and lysosomal degradation pathways. To further elucidate the mechanism of TTFields-mediated degradation of Notch1 protein, lysosomal inhibitor Leupeptin and proteasomal inhibitor MG132 were employed (FIG. 11E). […] Lysosomal degradation of proteins, particularly those located on cell membrane such as Notch1, often involves cell membrane.
Protein levels were evaluated through Western Blot analysis, following the established protocol. The antibodies employed in the study are listed below. Rabbit notch1 (Abcam, ab52627), Rabbit Cleaved Notch1 (CST, 4147S), Mouse anti-GAPDH (Abclonal, A19056), Rabbit anti-Tubulin (Abclonal, AC015), Rabbit anti-Hes1 (ab108937), rabbit anti-Hes5 (Abclonal A16237), rabbit anti-Hey1 (Abclonal A16110), rabbit anti-Myc (Selleck, A5011), anti-rabbit CD133 (Abcam, ab19898), anti-mouse Sox2 (Abcam, ab79351), anti-Rabbit Nestin (Abcam), and Anti-mouse lamp1.

[5] = phase I and II clinical trials for glioblastoma
[6] = 5 μM Notch1 inhibitor alone, FIG. 6
[7] = 5 μM Notch1 inhibitor alone, FIG. 7
[8] = 20 μM Notch1 inhibitor alone, FIG. 6
[9] = 20 μM Notch1 inhibitor alone, FIG. 7
[10] = 250 μM Temozolomide and 5 μM Notch1 inhibitor concomitant, FIG. 7
[11] = 250 μM Temozolomide and 20 μM Notch1 inhibitor concomitant, FIG. 7
[12] = TTFields and 5 μM Notch1 inhibitor concomitant, FIG. 6
[13] = TTFields and 20 μM Notch1 inhibitor concomitant, FIG. 6

Cn1nnc2c(C(N)=O)ncn2c1=O [Temozolomide]
viability at 250 µM (U87; Homo sapiens, U-87 MG, 250 μM Temozolomide alone, FIG. 7): 75%
viability at 250 µM (U251; Homo sapiens, U-251, 250 μM Temozolomide alone, FIG. 7): 75%

CC(C)(C(=O)NCC(F)(F)C(F)(F)F)C(=O)N[C@@H]1C(=O)Nc2ccccc2-c2ccccc21 [RO4929097]
cytotoxicity by Edu staining in GBOs ([1]; Notch1 inhibitor alone): no apparent cytotoxicity
effect with TTFields by Edu staining in GBOs ([1]; combined with TTFields): clear synergistic effect
sensitization of alternating electric field therapy (cells; RO4929097 combined with an alternating electric field, low-intensity, long duration, FIGS. 4 and 5): sensitizes alternating electric field therapy
safety profile (glioblastoma; glioblastoma / recurrent GB patients): favorable safety profile
blood-brain barrier penetration (glioblastoma; [5]): favorable blood-brain barrier penetration
expression of Notch1 downstream genes in tumor cells (glioblastoma; [5]): reduce expression of Notch1 downstream genes
cell viability (U87; [6]): 80%
cell viability (U87; [7]): no change in viability
cell viability (U87; [8]): around 60%
cell viability (U87; [9]): around 80%
cell viability (U87; [10]): no change in viability
cell viability (U87; [11]): no change in viability
cell viability (U87; [12]): 20%
cell viability (U87; [13]): 20%
colonogenic abilities following re-seeding after treatment (glioma cells [2]; Notch1 inhibitor alone, FIG. 5): no significant impact
clonogenic ability / long-term proliferative potential (glioma cells [2]; Notch1 inhibitor combined with TTFields / alternating electric field, re-seeding after treatment): synergy; also recorded: sensitization effect
cytotoxicity in EdU incorporation assays ([3]; RO4929097 alone, FIGS. 10A and B): minimal cytotoxicity
therapeutic sensitization in EdU incorporation assays ([3]; RO4929097 combined with TTFields, FIGS. 10A and B): noticeable enhancement in therapeutic sensitization
growth suppression by TTFields ([3]; combined with TTFields, FIG. 10 legend): enhances growth suppression
cell viability (U251; [6]): no change in viability
cell viability (U251; [7]): no change in viability
cell viability (U251; [8]): around 60%
cell viability (U251; [9]): around 80%
cell viability (U251; [10]): no change in viability
cell viability (U251; [11]): no change in viability
cell viability (U251; [12]): 20%
cell viability (U251; [13]): 20%
sensitization to / killing by temozolomide (TMZ) (glioma cells [4]): did not sensitize
sensitization to / killing by temozolomide (TMZ) (glioma cells [4]; listed as Notch1 inhibitor): no effect
sensitization to / killing by temozolomide (TMZ) (glioma cells [4]; listed as RO): does not enhance killing

C[C@H](NC(=O)Cc1cc(F)cc(F)c1)C(=O)N[C@H](C(=O)OC(C)(C)C)c1ccccc1 [DAPT]
therapeutic efficacy of the alternating electric field (cells; DAPT combined with an alternating electric field, FIG. 8): enhances the therapeutic efficacy

CC(=O)N[C@@H](CC(C)C)C(=O)N[C@@H](CC(C)C)C(=O)N[C@H](C=O)CCCNC(=N)N [Leupeptin]
effect on TTFields-induced degradation of Notch1 protein (Notch1 protein): blocked
